# Laboratory results as given in patent US8501691B2, “Methods for treatment of headaches by administration of oxytocin” (The Board of Trustees of the Leland Stanford Junior …, priority 2005, dated 2013).
# Legend:
# [1] = test system: Sprague-Dawley rats; assay: Withdrawal latencies after noxious thermal (laser) stimulation to the ears or hindpaws after intranasal administration; assay type: in vivo, rat; settings: 10 μg intranasal, tested five minutes after final application
# Excerpt: Activity of an analgesic agent can be tested in a rat model by studying treatment-induced changes in latencies (times) of withdrawal in response to noxious heating of the skin, typically applying a stimulus to an ear or a hindpaw. Thus, application of coherent or non-coherent (non-laser) radiant heat to the ear or hindpaw will elicit rapid withdrawal movements. […] Transmucosal or transdermal administration of analgesic agents can be tested for regional and/or systemic analgesia. After administration of an analgesic agent an increase in latency to withdrawal time of the ear would indicate regional analgesia. A change in the latency to withdrawal time of the hindpaw would indicate whether there was a systemic analgesic effect, i.e. no change in the latency to withdrawal time indicates no systemic effect, while an increase in latency to withdrawal time would indicate a systemic effect.
# Rats are housed in a 12/12-hour light/dark environment and are provided food and water ad libitum. […]
# Sprague-Dawley rats (Charles River Laboratories) were lightly anesthetized with urethane and placed with minimal restraint on a heating pad to maintain their body temperature at 37° C. […] Baseline withdrawal latencies were measured by delivering 4 separate stimuli with a resting period of approximately 15 minutes between each stimulus. […] As described above, testing sessions were videotaped and analyzed. […]
# [2] = test system: daily migraine; assay: Intranasal oxytocin in a patient, pain rating on VAS (0-10); assay type: in vivo, human; settings: 24 IU intranasal, baseline pain rating 4 out of 10
# Protocol: (§1) Upon presentation at the clinic, a patient is asked for a pain assessment (0-10 rating on VAS). The VAS is an 11-point numerical pain rating scale wherein 0 equals “no pain” and 10 equals the “worst pain imaginable”. The analgesic agent is self-administered by nasal applicator. Initially, one puff is given in each nostril. After waiting 15 minutes the patient is asked again for a pain rating and any side effects (e.g. sedation) are assessed. If pain is still present, another puff per nostril is self-administered. After another 15 minutes, pain and side-effects are assessed. If pain is still present, two mote puffs of agent are self-administered. After 15 minutes, pain is rated again, and side effects are assessed. If pain is still present, a final two puffs are given. After another 15 minutes and at 15, 30 and 60 minutes after that, pain and side-effects are re-assessed.
# A patient was seen after reporting a daily migraine which they rated as a mild to moderate headache with a pain rating of 4 out of 10 as assessed by the procedure described herein. The patient was treated with oxytocin administered intranasally at a dose of 24 IU. The patient reported that the oxytocin decreased the pain to a rating of 2 out of 10.
# [3] = test system: “stress” or tension headache; assay type: in vivo, human; settings: 4 IU in 0.2 ml intranasal
# Protocol: as §1
# A patient was seen reporting a “stress” or tension headache for which they rated their head pain as a 5 out of 10 as assessed by the procedure described herein. The patient was treated with oxytocin administered intranasally at a dose of 4 IU in 0.2 ml. Approximately 10-15 minutes after administration, the patient reported that the pain was completely gone. […] The patient reported being pain free for approximately 48 hours.
# [4] = test system: “hangover” headache; assay: Intranasal oxytocin in a patient, pain rating on VAS (0-10); assay type: in vivo, human; settings: 24 IU intranasal, baseline 8 out of 10
# Protocol: as §1
# A patient was seen reporting a “hangover” headache which was rated as an 8 out of 10 as assessed by the procedure described herein. The patient was treated with oxytocin administered intranasally at a dose of 24 IU. The patient reported that the headache completely resolved within 15 minutes.
# [5] = test system: trigeminal nucleus caudalis wide dynamic range (WDR) neurons; assay: Electrical stimulation-induced responses, single unit extracellular recordings in trigeminal nucleus caudalis; assay type: in vivo, rat
# Protocol: Male Sprague-Dawley rats (Charles River Laboratories) were anesthetized with isoflurane and used in the following experiments. In the anesthetized rats, single unit, extracellular recordings were performed in trigeminal nucleus caudalis while stimulating the ipsilateral facial skin with constant-current bipolar electrical stimulation. Epoxylate-insulated, tungsten microelectrodes (10 MOhm) were used under stereotaxic coordinate control.
# Shown are responses (action potentials per 30 stimuli) to repeated stimulation of a rat's face before oxytocin administration (pre-oxytocin). After administration with oxytocin at approximately 0.1 IU, responses were recorded every five minutes for 65 minutes. A second administration of oxytocin at the same dosage was administered at approximately 70 minutes after the first dose. The approximate site of the administration of the electrical stimulation is indicated by the black spot on a map of the rat's face (FIG. 3B).
# [6] = test system: severe headaches secondary to adult hydrocephalus and multiple shunt surgeries; assay: Intranasal oxytocin in a patient, pain rating on VAS (0-10); assay type: in vivo, human
# Protocol: as §1
# The patient's pain had been unrelieved by treatment with triptans, ergotamines, and high-dose opiates. The patient presented with a pain rating of 8 out of 10 as assessed by the procedure described herein. The patient self-administered oxytocin intranasally at a dose of 4 IU in 0.2 ml. […] Pain relief lasted approximately 24 hours, only briefly interrupted by mild head pain that occurred with activity.
# This patient returned to the clinic approximately 1 month later. At this appointment the patient rated the pain as an 8 out of 10. Unbeknownst to them, the patient was first given an intranasal administration of normal saline, in approximately the same volume as used for the oxytocin administration (0.2 ml). No analgesic or other effect was reported by the patient. After waiting 30 minutes, the patient was administered 4 IU of oxytocin intranasally as described above. Within 20-25 minutes, the patient reported that the pain was completely gone. […] Pain returned approximately 24 hours after treatment.
# [7] = test system: “cluster” headache; assay: Intranasal oxytocin in a patient with headache; assay type: in vivo, human; settings: 16 IU intranasal
# Protocol: as §1
# A patient was seen reporting having an ongoing strong headache with occasional boring pain on the left side. The pain had lasted for more than 2 weeks and had been diagnosed as a “cluster” headache. The patient was treated with oxytocin administered intranasally at a dose of 16 IU. The patient reported that their headache completely resolved within 15 minutes and relief lasted for 24 hours.
# [8] = test system: single pain sensing nerve cells in the trigeminal ganglion; assay: Trigeminal ganglion nerve impulses in response to noxious laser pulses to the face; assay type: in vivo, rat; settings: 10 nmoles applied to the nose, post- vs pre-oxytocin
# Protocol: Sprague-Dawley rats (Charles River Laboratories) were anesthetized with isofluorane and a platinum electrode was inserted transcranially into the trigeminal ganglion. Nerve impulses (action potential) were recorded from single pain sensing nerve cells in the trigeminal ganglion in response to application of noxious laser pulses to the face of the rats. After recording responses to several identical laser pulses, 10 nmoles of oxytocin was applied to the nose of the rats. Thereafter, identical laser pulses were once again applied and recorded.
# [9] = approximately 0.1 IU intranasal, first administration
# [10] = second dose, same dosage, approximately 70 minutes after the first
# [11] = first visit, 4 IU in 0.2 ml intranasal
# [12] = first visit, 4 IU intranasal, baseline pain rating 8 out of 10
structure (smiles),measurement,setting,value
"CC[C@H](C)[C@@H]1NC(=O)[C@H](Cc2ccc(O)cc2)NC(=O)[C@@H](N)CSSC[C@@H](C(=O)N2CCC[C@H]2C(=O)N[C@@H](CC(C)C)C(=O)NCC(N)=O)NC(=O)[C@H](CC(N)=O)NC(=O)[C@H](CCC(N)=O)NC1=O [oxytocin, Cys-Tyr-Ile-Gln-Asn-Cys-Pro-Leu-Gly]",regional analgesic effect (ear withdrawal latency),[1]; laser to ears,achieved a regional analgesic effect in the head region
same,systemic analgesic effect (hindpaw withdrawal latency),[1]; laser to hindpaws,without a systemic analgesic effect at the hindpaw
same,pain rating after treatment,[2],2 out of 10
same,duration pain free,[3],approximately 48 hours
same,time until pain completely gone,[3]; baseline pain 5 out of 10,10 to 15 min
same,time until headache completely resolved,[4],≤ 15 min
same,responses (action potentials per 30 stimuli) after first administration,[5]; [9],significant reduction in responses
same,time of beginning of reduction in responses after first administration,[5]; [9],10 min
same,time post treatment until which reduction continued (responses then began to increase),[5]; [9],50 min
same,responses (action potentials per 30 stimuli) after second administration,[5]; [10],significant reduction in responses
same,time to reduction in responses after second administration,[5]; [10],≤ 10 min
same,sedation,[6]; [11],mild sedation
same,time for sedation to clear,[6]; [11],≤ 10 min
same,time to onset of sedation,[6]; [11],≤ 5 min
same,breast tenderness the day after treatment,"[6]; first visit, 4 IU intranasal",some breast tenderness
same,duration of pain relief,"[6]; first visit, 4 IU intranasal",approximately 24 hours
same,time for breast tenderness to resolve,"[6]; first visit, 4 IU intranasal",≤ 24 h
same,headache pain by 15 minutes after administration,[6]; [12],significantly reduced
same,time until pain completely gone,[6]; [12],≤ 30 min
same,time until pain completely gone,"[6]; second visit about 1 month later, 4 IU intranasal 30 minutes after saline, baseline 8 out of 10",20 to 25 min
same,breast tenderness the following day,"[6]; second visit, 4 IU intranasal",nor was there any breast tenderness
same,sedation,"[6]; second visit, 4 IU intranasal",no observed sedation
same,time until pain returned after treatment,"[6]; second visit, 4 IU intranasal",approximately 24 hours
same,duration of relief,[7],24 h
same,time until headache completely resolved,[7],≤ 15 min
same,neuronal response to noxious laser pulses (average nerve impulses per laser pulse),[8],significantly (p<0.05) reduced
